Results published in US10259810B2, “N-sulfonylated pyrazolo[3,4-b]pyridin-6-carboxamides and method of use” (AbbVie S.à.r.l., priority 2015, dated 2019).
Like-named read-outs stand apart in the source and are kept apart here.

Tests used:
Assay type in all cases: cell-based
ΔF508-CFTR [1] = target: T1, ΔF508-CFTR (Homo sapiens, UniProt P13569, DEL508-508); test: CFTR cell surface levels using HRP-tagged ΔF508-CFTR expressing CFBE cells, in the presence of a co-corrector; conditions: HRP-tagged ΔF508-CFTR CFBE cells, in the presence of 3 μM co-corrector; for EC50: read-out: EC50
T1 construct: host or cells: CFBE41o-, doxycycline-inducible
T1 sequence (P13569 with tags, fused parts or gaps DEL508-508): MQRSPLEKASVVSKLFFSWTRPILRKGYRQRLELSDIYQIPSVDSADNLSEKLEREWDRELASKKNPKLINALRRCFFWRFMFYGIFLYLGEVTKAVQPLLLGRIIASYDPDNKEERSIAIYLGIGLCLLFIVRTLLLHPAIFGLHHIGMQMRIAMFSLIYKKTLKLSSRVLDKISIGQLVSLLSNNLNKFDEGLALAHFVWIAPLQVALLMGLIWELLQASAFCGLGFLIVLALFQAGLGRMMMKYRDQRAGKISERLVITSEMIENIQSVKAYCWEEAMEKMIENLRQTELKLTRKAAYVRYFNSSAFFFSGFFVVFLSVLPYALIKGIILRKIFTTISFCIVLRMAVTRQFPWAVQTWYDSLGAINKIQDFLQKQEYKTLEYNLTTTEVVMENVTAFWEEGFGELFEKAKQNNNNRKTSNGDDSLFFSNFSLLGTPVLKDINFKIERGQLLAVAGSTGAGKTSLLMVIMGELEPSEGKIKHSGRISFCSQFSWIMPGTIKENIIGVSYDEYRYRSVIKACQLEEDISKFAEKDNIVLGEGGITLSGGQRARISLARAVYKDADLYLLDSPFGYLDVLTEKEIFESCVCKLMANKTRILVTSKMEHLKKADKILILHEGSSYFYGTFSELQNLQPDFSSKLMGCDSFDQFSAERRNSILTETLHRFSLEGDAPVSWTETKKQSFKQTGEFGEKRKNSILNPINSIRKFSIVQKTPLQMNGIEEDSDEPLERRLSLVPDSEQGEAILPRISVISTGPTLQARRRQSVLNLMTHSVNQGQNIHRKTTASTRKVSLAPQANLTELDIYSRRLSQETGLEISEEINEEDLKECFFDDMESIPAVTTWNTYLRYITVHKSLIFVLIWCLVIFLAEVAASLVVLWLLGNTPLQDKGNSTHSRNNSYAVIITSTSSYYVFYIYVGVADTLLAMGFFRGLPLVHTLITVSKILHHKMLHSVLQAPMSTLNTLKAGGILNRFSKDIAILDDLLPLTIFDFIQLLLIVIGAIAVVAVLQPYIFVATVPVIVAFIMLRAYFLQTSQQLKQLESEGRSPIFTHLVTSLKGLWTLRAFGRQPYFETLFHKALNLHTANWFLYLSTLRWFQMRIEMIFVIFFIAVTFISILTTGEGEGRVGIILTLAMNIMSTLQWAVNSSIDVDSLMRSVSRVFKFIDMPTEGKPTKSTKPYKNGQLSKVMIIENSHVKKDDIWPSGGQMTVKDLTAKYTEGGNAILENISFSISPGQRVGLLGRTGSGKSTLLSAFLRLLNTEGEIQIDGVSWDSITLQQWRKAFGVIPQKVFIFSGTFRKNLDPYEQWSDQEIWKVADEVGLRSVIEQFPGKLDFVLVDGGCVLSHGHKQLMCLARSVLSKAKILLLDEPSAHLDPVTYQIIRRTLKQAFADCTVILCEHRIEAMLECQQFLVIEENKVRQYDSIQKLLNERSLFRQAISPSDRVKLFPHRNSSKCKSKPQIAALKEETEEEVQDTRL
Outline: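 Chemiluminescent read-out of surface HRP (15 min, dark) after PBS washes. Activity is normalized as 100×(sample−DMSO)/(3 μM co-corrector alone−DMSO).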

ΔF508-CFTR [2] = target: T1, ΔF508-CFTR; test: CFTR cell surface levels using HRP-tagged ΔF508-CFTR expressing CFBE cells, intrinsic corrector capacity; design: % Activation: concentration or dose not given beside the values; conditions: HRP-tagged ΔF508-CFTR expressing CFBE41o- cells, compound alone (intrinsic corrector capacity), 20 hours at 33° C.; for EC50: read-out: EC50
Outline: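 Read-out: chemiluminescent HRP activity of ECL4-HRP-tagged ΔF508-CFTR at the cell surface, 15 min substrate in dark. Normalized as 100×(sample−DMSO)/(positive control−DMSO).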

CFTR ΔF508 = target: T2, CFTR ΔF508 (Homo sapiens, UniProt P13569, DEL508-508); test: Chronic TECC assay, primary bronchial epithelial cells of CF patients homozygous for CFTR ΔF508 (corrector, co-corrector and potentiator); conditions: chronic TECC
T2 construct: bronchial epithelial cells isolated from CF patients homozygous for the CFTR ΔF508 mutation; McGill University; Asterand; University of North Carolina hAEC-CF; host or cells: primary human bronchial epithelial cells from CF patients homozygous for ΔF508, differentiated at air-liquid interface
T2 sequence (P13569 with tags, fused parts or gaps DEL508-508): as above
Protocol: Primary Bronchial Epithelial Cells Protocol
The TECC (Tranepithelial Clamp Circuit, EP-design) assay measures the functionality of the cystic fibrosis Transmembrane Conductance regulator (CFTR) by measuring the short circuit current (Isc) generated over the basolateral and apical membrane of lung epithelial cells. In TECC the transepithelial potential PD and transepithelial resistance (Rt) are measured in an open circuit and transformed to Ieq using Ohm's law. 24 Wells can be measured simultaneously allowing a higher throughput compared to Ussing chambers.
For this purpose, bronchial epithelial cells isolated from CF patients homozygous for the CFTR ΔF508 mutation (hAEC-CF, Epithelix, Geneva, Switzerland; McGill University, Montreal, Qc; Asterand, Detroit, Mich.; University of North Carolina, Chapel Hill, N.C.) are plated on type IV collagen-coated Transwell® supports (Costar).
For electrophysiological recording of the “chronic” experiments, the human airway epithelia are mounted in the TECC heating plate for electrophysiological measurement and kept at 37° C. The epithelia are bathed in a NaCl-Ringer solution (120 mM NaCl, 25 mM NaHCO3, 1.2 mM CaCl2, 1.2 mM MgCl2, 0.8 mM KH2PO4, 0.8 mM K2HPO4, pH 7.4, 5 mM glucose) on both the basolateral and apical sides. Test compounds (corrector, co-corrector, 4-[(2R,4R)-4-({[1-(2,2-difluoro-1,3-benzodioxol-5-yl)cyclopropyl]carbonyl}amino)-7-(difluoromethoxy)-3,4-dihydro-2H-chromen-2-yl]benzoic acid, and potentiator, N-(3-carbamoyl-5,5,7,7-tetramethyl-4,7-dihydro-5H-thieno[2,3-c]pyran-2-yl)-1H-pyrazole-5-carboxamide), are re-added to the recording solution prior to measurement. […] Apical amiloride is used to inhibit the endogenous ENaC currents while forskolin is applied on both apical and basolateral side to stimulate CFTR. Measurements are done during a 20 minute timeframe with recordings every 2 minutes. The increase in Ieq is used as a measure for the increased CFTR activity, EC50 values can be generated by measuring impact of different concentrations of compound on Ieq on primary cells, for this purpose each transwell is treated with a different compound concentration. […] Raw data were normalized to percentage activity values using the equation: 100×(Sample−Negative control)/(Positive control−Negative Control).

[3] = Ieq = calculations based on the maximum current, read-out: EC50 (nM) (Ieq*)
[4] = AUC = full area under the curve upon forskolin stimulation, read-out: EC50 (nM) (AUC**)
[5] = test compound at 1 μM, AUC = full area under the curve upon forskolin stimulation

Row | SMILES | % Activation (ΔF508-CFTR [1]) [%] | EC50 (ΔF508-CFTR [1]) [nM] | % Activation (ΔF508-CFTR [2]) [%] | EC50 (ΔF508-CFTR [2]) [nM] | EC50 (CFTR ΔF508; [3]) [nM] | % Activity at 1 μM (Ieq*) (CFTR ΔF508; test compound at 1 μM, Ieq = calculations based on the maximum current) [%] | EC50 (CFTR ΔF508; [4]) [nM] | % Activity at 1 μM (AUC**) (CFTR ΔF508; [5]) [%]
1 | COCCS(=O)(=O)NC(=O)c1cc(N2CCC(OC)CC2)c2c(C3CCC3)nn(-c3ccccc3)c2n1 [Compound 146, 3-cyclobutyl-N-(2-methoxyethanesulfonyl)-4-(4-methoxypiperidin-1-yl)-1-phenyl-1H-pyrazolo[3,4-b]pyridine-6-carboxamide] | 357.55 | 96.9 | 201.23 | 356 | 30 | 310 | – | –
2 | COC1CCN(c2cc(C(=O)NS(C)(=O)=O)nc3c2c(C(C)C)nn3C2CCCCC2)CC1 [Compound 150, 1-cyclohexyl-N-(methanesulfonyl)-4-(4-methoxypiperidin-1-yl)-3-(propan-2-yl)-1H-pyrazolo[3,4-b]pyridine-6-carboxamide] | 380.65 | 318 | 220.98 | 576 | 100 | – | – | –
3 | CCCOC1CCN(c2cc(C(=O)NS(C)(=O)=O)nc3c2c(C2CCC2)nn3-c2ccccc2)CC1 [Compound 152, 3-cyclobutyl-N-(methanesulfonyl)-1-phenyl-4-(4-propoxypiperidin-1-yl)-1H-pyrazolo[3,4-b]pyridine-6-carboxamide] | 409.9 | 108 | 242.35 | 357 | – | – | 16 | 482.77
4 | COC1CCN(c2cc(C(=O)NS(C)(=O)=O)nc3c2c(C(C)C)nn3-c2cccc(N(C)C)c2)CC1 [Compound 155, 1-[3-(dimethylamino)phenyl]-N-(methanesulfonyl)-4-(4-methoxypiperidin-1-yl)-3-(propan-2-yl)-1H-pyrazolo[3,4-b]pyridine-6-carboxamide] | 555.45 | 230 | 439.5 | 454 | – | – | 4 | 200
5 | CC(C)c1nn(-c2ccnc(N3CCCC3)c2)c2nc(C(=O)NS(C)(=O)=O)cc(-c3ccc(N4CCC(C#N)CC4)nc3)c12 [Compound 158, 4-[6-(4-cyanopiperidin-1-yl)pyridin-3-yl]-N-(methanesulfonyl)-3-(propan-2-yl)-1-[2-(pyrrolidin-1-yl)pyridin-4-yl]-1H-pyrazolo[3,4-b]pyridine-6-carboxamide] | 512.45 | 267 | 359.1 | 622 | – | – | – | 370.9
6 | CC(C)c1nn(-c2cccc(N(C)C)c2)c2nc(C(=O)NS(C)(=O)=O)cc(N3CCC(C#N)CC3)c12 [Compound 160, 4-(4-cyanopiperidin-1-yl)-1-[3-(dimethylamino)phenyl]-N-(methanesulfonyl)-3-(propan-2-yl)-1H-pyrazolo[3,4-b]pyridine-6-carboxamide] | 490.4 | 202 | 285.57 | 309 | – | – | 160 | 190
7 | COC1CCN(c2cc(C(=O)NS(C)(=O)=O)nc3c2c(C(C)C)nn3-c2ccc(F)cc2)CC1 [Compound 167, 1-(4-fluorophenyl)-N-(methanesulfonyl)-4-(4-methoxypiperidin-1-yl)-3-(propan-2-yl)-1H-pyrazolo[3,4-b]pyridine-6-carboxamide] | 429.4 | 81.8 | 260.6 | 313 | – | – | 32 | 260
8 | COCC1CCN(c2cc(C(=O)NS(C)(=O)=O)nc3c2c(C(C)C)nn3-c2ccc(F)cc2)CC1 [Compound 168, 1-(4-fluorophenyl)-N-(methanesulfonyl)-4-[4-(methoxymethyl)piperidin-1-yl]-3-(propan-2-yl)-1H-pyrazolo[3,4-b]pyridine-6-carboxamide] | 581.55 | 410 | 399.2 | 338 | – | – | 38.2 | 282.45
9 | CC(C)c1nn(-c2ccnc(N3CCCC3)c2)c2nc(C(=O)NS(C)(=O)=O)cc(-c3ccc(N4CCC(C#N)CC4)cc3)c12 [Compound 169, 4-[4-(4-cyanopiperidin-1-yl)phenyl]-N-(methanesulfonyl)-3-(propan-2-yl)-1-[2-(pyrrolidin-1-yl)pyridin-4-yl]-1H-pyrazolo[3,4-b]pyridine-6-carboxamide] | 519.3 | 284 | 344.25 | 426 | – | – | 2.1 | 210
10 | CC(C)c1nn(-c2ccc(F)cc2)c2nc(C(=O)NS(C)(=O)=O)cc(N3CCC4(CCO4)CC3)c12 [Compound 177, 1-(4-fluorophenyl)-N-(methanesulfonyl)-4-(1-oxa-7-azaspiro[3.5]nonan-7-yl)-3-(propan-2-yl)-1H-pyrazolo[3,4-b]pyridine-6-carboxamide] | 263.9 | 385 | 99.405 | 830 | – | – | > 100 | 419.90
11 | COCC1CCN(c2cc(C(=O)NS(C)(=O)=O)nc3c2c(C2CCC2)nn3-c2ccccc2)CC1 [Compound 185, 3-cyclobutyl-N-(methanesulfonyl)-4-[4-(methoxymethyl)piperidin-1-yl]-1-phenyl-1H-pyrazolo[3,4-b]pyridine-6-carboxamide] | 546.7 | 145 | 331.6 | 241 | – | – | 45.4 | –
12 | COC1CCN(c2cc(C(=O)NS(C)(=O)=O)nc3c2c(C(C)C)nn3-c2ccnc(N3CCOCC3)c2)CC1 [Compound 187, N-(methanesulfonyl)-4-(4-methoxypiperidin-1-yl)-1-[2-(morpholin-4-yl)pyridin-4-yl]-3-(propan-2-yl)-1H-pyrazolo[3,4-b]pyridine-6-carboxamide] | 308.87 | 69.3 | 160 | 223 | – | – | > 1000 | 180
13 | COC1CCN(c2cc(C(=O)NS(C)(=O)=O)nc3c2c(C(C)C)nn3-c2ccnc(N3CCCC3)c2)CC1 [Compound 188, N-(methanesulfonyl)-4-(4-methoxypiperidin-1-yl)-3-(propan-2-yl)-1-[2-(pyrrolidin-1-yl)pyridin-4-yl]-1H-pyrazolo[3,4-b]pyridine-6-carboxamide] | 405.37 | 160 | 214.93 | 274 | – | – | – | 257.3
14 | CS(=O)(=O)NC(=O)c1cc(N2CCC(S(C)(=O)=O)CC2)c2c(C3CCC3)nn(-c3ccccc3)c2n1 [Compound 190, 3-cyclobutyl-N-(methanesulfonyl)-4-[4-(methanesulfonyl)piperidin-1-yl]-1-phenyl-1H-pyrazolo[3,4-b]pyridine-6-carboxamide] | 502.4 | 1240 | 284.8 | 967 | – | – | 51 | 269
15 | COCC1CN(c2cc(C(=O)NS(C)(=O)=O)nc3c2c(C2CCC2)nn3-c2ccccc2)C1 [Compound 193, 3-cyclobutyl-N-(methanesulfonyl)-4-[3-(methoxymethyl)azetidin-1-yl]-1-phenyl-1H-pyrazolo[3,4-b]pyridine-6-carboxamide] | 341.37 | 589 | 175.23 | 1070 | – | – | – | 317.57
